From PubChem BioAssay (NCI)
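1) Cells in 96-well plates. 2) Compound, 48 h, 5 concentrations. 3) Linear interpolation between surrounding doses. 4) Unreached endpoint = highest concentration. Definition used: TGI = concentration required for complete inhibition of growth.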

What was measured:
Experiment in all cases: NCI anticancer screen, dose series, 48 h
A549 NSCLC = test system: A549 NSCLC
CCRF-CEM leukemia = test system: CCRF-CEM leukemia
HL-60(TB) leukemia = test system: HL-60(TB) leukemia
HOP-62 NSCLC = test system: HOP-62 NSCLC
MDA-MB-231 breast = test system: MDA-MB-231 breast
NCI-H460 lung = test system: NCI-H460 lung
U251 CNS = test system: U251 CNS
UACC-257 melanoma = test system: UACC-257 melanoma
UACC-62 melanoma = test system: UACC-62 melanoma
UO-31 renal = test system: UO-31 renal

SMILES | TGI (A549 NSCLC) [µM] | TGI (CCRF-CEM leukemia) [µM] | TGI (HL-60(TB) leukemia) [µM] | TGI (HOP-62 NSCLC) [µM] | TGI (MDA-MB-231 breast) [µM] | TGI (NCI-H460 lung) [µM] | TGI (U251 CNS) [µM] | TGI (UACC-257 melanoma) [µM] | TGI (UACC-62 melanoma) [µM] | TGI (UO-31 renal) [µM]
Cn1c(=S)[nH]c(N)c(Cc2ccccc2)c1=O | > 100 | > 100 | > 100 | > 100 | > 100 | > 100 | > 100 | > 100 | > 100 | –
O=c1oc2ccccc2n1P(=O)(Oc1ccc(Cl)cc1)n1c(=O)oc2ccccc21 | > 100 | > 100 | > 100 | > 100 | – | – | > 100 | > 100 | > 100 | > 100
COc1ccc(CNc2nc3cc(C(F)(F)F)ccc3nc2C(=O)O)cc1 | 95.9 | > 100 | – | 55.5 | > 100 | > 100 | > 100 | > 100 | 49.8 | 42.5
CC(=O)O[C@@H]1CC[C@@]2(C)C(=O)C34C[C@@]5(C)C([C@@H](C)CCCC(C)C)CCC5(C)[C@](O)(O3)C(=O)[C@H]4C2C1(C)C (stereo partly drawn) | 29.1 | 19.8 | 25.3 | 33.1 | – | 18.5 | 27.4 | 32.3 | 32.6 | 26
C=C1CN2CCc3c([nH]c4ccccc34)C2CC1CC(=O)N(C)C (stereo not drawn) | > 309 | > 309 | > 309 | > 309 | – | > 309 | > 309 | > 309 | > 309 | –
O=C(Nc1ccc(F)cc1)c1cc2c(cc1Cl)Sc1nccn1S2(=O)=O | > 100 | > 100 | – | 92.9 | > 100 | > 100 | 45.2 | – | – | –
C[C@]12CCc3nn(-c4ccccc4)nc3C1CC[C@@H]1C2CC[C@]2(C)C(=O)CCC12 (stereo partly drawn) | > 100 | > 100 | > 100 | > 100 | – | > 100 | > 100 | > 100 | > 100 | > 100
CC(N)C(C)c1ccccc1 (stereo not drawn) | > 100 | > 100 | > 100 | > 100 | – | > 100 | > 100 | > 100 | > 100 | > 100
CC(C)C(CCOS(=O)(=O)O)CCC(C)[C@H]1[C@@H](O)C(O)C2[C@]3(O)C[C@@H](O)C4(O)C[C@@H](O)CC[C@]4(C)C3CC[C@@]21C (stereo partly drawn) | > 100 | > 100 | > 100 | > 100 | – | > 100 | > 100 | – | > 100 | > 100
C/C(CCN(C)C)=N\OC(=O)c1ccccc1 | > 100 | > 100 | > 100 | > 100 | – | > 100 | > 100 | > 100 | > 100 | > 100
C=C(C)CCC(O)[C@](C)(O)[C@H]1[C@H](O)C[C@@]2(C)[C@@H]3CCc4c(cc(OC5OC(CO)C(O)C(O)C5O)c(O)c4C)C3(C)C(=O)C[C@]12C (stereo partly drawn) | > 100 | > 100 | – | > 100 | > 100 | > 100 | > 100 | > 100 | > 100 | > 100
Cn1c(=O)n(C2(C)CSC2)c2ccccc21 | > 100 | > 100 | > 100 | > 100 | – | > 100 | > 100 | > 100 | > 100 | > 100
Cc1ccc(S(=O)(=O)Nn2c(S)c(C#N)c(-c3ccc(Cl)cc3)c(C#N)c2=O)cc1 | > 100 | > 100 | 65.8 | – | > 100 | 31.4 | 58 | > 100 | > 100 | 57.5
CC1=CC[C@@H](C(C)(C)O)C[C@@H]1O | > 5000 | > 5000 | > 5000 | > 5000 | – | > 5000 | > 5000 | > 5000 | > 5000 | > 5000
COc1cc(C(c2ccc3c(c2)OCO3)C2SCCCS2)cc(OC)c1OC (stereo not drawn) | 53.3 | 3.56 | – | > 100 | 6.21 | 2.92 | 21.5 | > 100 | 28.2 | > 100
O[C@@]12Cc3c([nH]c4ccccc34)[C@@H]3Oc4c(-c5ccccc5)ccc5c4[C@@]31CCN(CC1CC1)[C@@H]2C5 | 3.53 | 7.56 | 4.48 | 3.06 | – | 3.36 | 3.09 | 3.45 | 3.32 | 3.11
COc1ccc(-c2cc(=O)c3cc(O)ccc3o2)c(OC)c1OC | > 100 | 70.6 | 37.2 | > 100 | – | – | – | > 100 | > 100 | –
O=C(OCC(OC(=O)c1ccccc1)C1CC(C2(O)CCCCC2)C(=O)O1)c1ccccc1 (stereo not drawn) | > 25 | > 25 | – | > 25 | > 25 | > 25 | > 25 | > 25 | 2.21 | 3.88
